Values of other authors as cited in patent publication US20060089319A1, “Method for treatment and prevention of bacterial vaginosis” (priority 2004, published 2006).

Tested on: bacterial vaginosis

Cc1ncc([N+](=O)[O-])n1CCO [metronidazole]
hospital admissions for preterm labor, preterm births, PROM, and low-birth-weight infants (oral, high-risk women with previous preterm delivery, double-blind study by Morales et al.): fewer
long-term suppression of bacterial vaginosis flora (duration) (oral, pregnant women, two separate studies): 2-3 months
treatment of bacterial vaginosis in pregnant women, thereby preventing preterm delivery (pregnant women, numerous studies): effective treatment
